Reference: patent US20070037709A1, “Polyethylene glycol esters of r-(+)-mcpp acid” (priority 2003, published 2007)
Read-outs that look alike come from different tables or passages of the source.

Legend:
lupin = tested on: lupin
Protocol: The compounds and mixtures of Examples 1 and 2 were tested for their activity for root penetration inhibition as specified in DIN 4062 (lupin test): […]

undesired plants = conditions: crop protection; cited from earlier work

SMILES	Root penetration into (number) (lupin; Concentration 0.1%)	Root penetration through (number) (lupin; Concentration 0.1%)	Root penetration into (number) (lupin; Concentration 0.2%)	Root penetration through (number) (lupin; Concentration 0.2%)	Root penetration into (number) (lupin; Concentration 0.5%)	Root penetration through (number) (lupin; Concentration 0.5%)	Root penetration into (number) (lupin; Concentration 1.0%)	Root penetration through (number) (lupin; Concentration 1.0%)	herbicidal effectiveness compared with the S-(−) isomer or the racemic mixture (undesired plants)
Cc1cc(Cl)ccc1OC(C)C(=O)OCCOCCOCCOCCOC(=O)C(C)Oc1ccc(Cl)cc1C (racemic) [Example 2, diester of tetraethylene glycol with rac-2-(4-chloro-2-methylphenoxy)propionic acid]	approx. 40 number	1 number	approx. 40 number	0 number	approx. 10 number	0 number	0 number	0 number	
Cc1cc(Cl)ccc1O[C@H](C)C(=O)OCCOCCOCCOCCOC(=O)[C@@H](C)Oc1ccc(Cl)cc1C [Example 1, diester of tetraethylene glycol with R-(+)-2-(4-chloro-2-methylphenoxy)propionic acid]	approx. 40 number	0 number	approx. 15 number	0 number	1 number	0 number			
Cc1cc(Cl)ccc1O[C@@H](C)C(=O)OCCOCCOCCOCCOC(=O)[C@H](C)Oc1ccc(Cl)cc1C [Example 4, diester of tetraethylene glycol with S-(−)-2-(4-chloro-2-methylphenoxy)propionic acid]	>50 number	>50 number	>50 number	>50 number	>50 number	>50 number	approx. 40 number	approx. 40 number	
Cc1cc(Cl)ccc1O[C@H](C)C(=O)O [R-(+) isomer, R-(+)-2-(4-chloro-2-methylphenoxy)propionic acid]									markedly more effective
